Experiments:
[1] = Peptide release from amyloid (dialysis experiment); details: for KD: dissociation constant of the aggregates = final monomer concentration, 200 μl of 30-d-old analog dialyzed against 4 ml 5% D-mannitol, fluorescence ex 280 nm
Procedure: Although amyloid fibrils are very stable, they must follow thermodynamic equilibrium conditions between fibril and monomer. […] A total of 200 μl of 30-d-old GnRH analog (in) was dialyzed 4 ml of 5% D-mannitol (out). A 3.5-kDa cutoff, which is twice the size of the peptides studied, was chosen to ensure that the released particles are most likely monomeric. The peptide release and the remaining aggregates were monitored by fluorescence over 35 d at room temperature.
A 200-μl aliquot of aged GnRH in solution conditions given above was transferred into a 0.6-ml Eppendorf tube with a hole in the cap. To study the effect of heparin on peptide release, a mixture of hormone analog and heparin (1:1 v/v) was incubated overnight in parallel with a half-diluted peptide fibril sample in 5% D-mannitol and 0.01% sodium azide. The hole in the cap of the Eppendorf tube was sealed with a 3.5-kDa molecular weight cutoff (MWCO) membrane. Next, the Eppendorf tube was inserted upside down into a 15-ml Falcon tube containing 4 ml of 5% D-mannitol in water and 0.01% sodium azide. Care was taken to make sure that the membrane was exposed to solutions both in and outside and that any bubbles at the membrane interface were removed. The tubes were then incubated at room temperature. To measure the remaining peptide concentration inside the 0.6-ml Eppendorf tube, a 5-μl aliquot was diluted into 500 μl water with 5% D-mannitol, 0.01% sodium azide, and the fluorescence was measured with excitation at 280 nm and emission in the range of 290–500 nm. The excitation slit width was 2 nm, and emission slit width was 11 nm. To determine the peptide concentration outside the membrane in the 15-ml tube, an aliquot of 250 μl of solution was taken from the releasing medium, diluted into 500 μl final volume by 5% D-mannitol, 0.01% sodium azide, and fluorescence was measured. Following spectra recording, the dialysis system was reassembled as described above. […] The normalized intensity maxima from inside and outside the membrane were plotted as a function of time and fit by an exponential function to extract the half-life of the fibrils and the K off, respectively. […] The extracted half-life, t 1/2, is the time taken, during which the fluorescence signal inside the 0.6-ml Eppendorf tube drops by 50%.

[2] = tested on: plasma luteinizing hormone (LH) levels; details: cited from earlier work; for Action: duration of action class as listed in Table 1, castrated male rat assay, ref Tables S1 and S2
Text: Table 1 Biochemical and Biophysical Properties of Aggregates By GnRH-Analogs | column: Action || Supplement pbio.0060017.st001.doc, table 1: Table S1: Short acting GnRH analogs with their duration of action | column: Duration of action^b || Supplement pbio.0060017.st002.doc, table 1: Table S2: Long acting GnRH analogs with their duration of action | column: Duration of action^b || (+ 2 further places)

[3] = Congo red (CR) binding; assay type: physicochemical; design: key to Congo Red: b, binding; n, not binding; details: analogs incubated for 30 d; for Congo Red: 1 mg/ml in 5% D-mannitol, 0.01% sodium azide, room temperature, UV 300–700 nm and by eye, three independent experiments
Procedure: To confirm amyloid formation by GnRH analogs, CR binding was measured. CR, like Thio T, is a dye routinely used to detect β-sheet–rich assemblies. CR binding can be measured by the “red shift” change of its absorption maximum from 490 to 540 nm, by an increase of the dye's molar absorptivity, and in favorable cases by eye. All three types of measurements were performed with GnRH analogs incubated for 30 d. […] However, five short-acting GnRH analogs, i.e., S3, S4, S6, S10, and S11, bind CR, showing that some short-acting GnRH-analogs are able to form amyloids after prolonged incubation (see also below). In contrast to short-acting analogs, all long-acting analogs bind CR.
(§1) GnRH analogs were dissolved in a glass tube in 1 ml of 5% D-mannitol and 0.01% sodium azide at a concentration of 1 mg/ml. The GnRH analogs were then incubated at room temperature without stirring. The fibril formation was monitored by EM, CR, and time-resolved by Thio T binding studies. Three independent experiments were performed for each sample.
A 5-μl aliquot of peptide sample was mixed with 80 μl of PBS buffer containing 10% ethanol. Then 15 μl of a 100 μM CR solution (filtered through 0.2-μm filter) in PBS containing 10% ethanol was added. After mixing, UV was measured from 300–700 nm. For the measurement of the CR-only spectrum, 15 μl of CR solution with 85 μl of PBS containing 10% ethanol was prepared. As a control, a 5-μl aliquot of GnRH analog mixed with 95 μl of PBS containing 10% ethanol was measured. Three independent experiments were performed for each sample. In addition to the UV measurements, pictures of the cuvette containing the peptide sample and CR were taken to visually show the CR binding to the amyloids.

[4] = Thio T binding (amyloid fibril formation); assay type: physicochemical; design: key to Thio T Binding: b, binding; n, not binding; details: 1 mg/ml in 5% D-mannitol, 0.01% sodium azide, room temperature without stirring, monitored daily over 21 d; fluorescence ex 450 nm / em 482 nm; three independent experiments
Procedure: The kinetics of fibril formation in vitro is generally a slow process over several days or weeks, and can be monitored by the increase of fluorescence intensity of the cross-β-sheet–sensitive dye, Thio T [15]. Thio T fluorescence is thereby insignificant during the initial incubation period of amyloid aggregation due to the nonexistence of Thio T–sensitive β-sheet aggregates. After the initial phase, a time-dependent increase of fluorescence intensity is observed until a maximum intensity is reached, at which time maximal fibril formation has occurred. […] For the Thio T binding studies, all GnRH analogs were incubated at room temperature at a concentration of 1 mg/ml in 5% D-mannitol, conditions identical to the formulation used in the animal experiments. In addition, 0.01% sodium azide was added. The Thio T fluorescence was monitored daily for all analogs over a period of 21 d (Figure 1).
as §1
A 10-μl aliquot of peptide sample was diluted into 500 μl of water with 5% D-mannitol containing 0.01% (w/v) sodium azide. The solution was mixed with 10 μl of 1 mM Thio T prepared in the same solution. Fluorescence was measured immediately after addition of Thio T. The experiment was measured on a spectrofluorimeter (Photon Technology International) with excitation at 450 nm and emission at 482 nm. The fluorescence intensity at 482 nm was plotted against incubation time (day). A rectangular 10-mm quartz microcuvette was used. Three independent experiments were performed for each sample.

[5] = Electron microscopy of negative-stained samples; assay type: physicochemical; design: key to EM^8 / EM^30: fib, fibrils; nfib, no fibrils; details: for EM, formation of amyloid-like fibrils at day 30 (in words): 30 d of incubation; for EM^8: electron microscopy at day 8 of incubation; for EM^8 / EM^30: 1 mg/ml in 5% D-mannitol, room temperature, at least two independent experiments; for EM^30: electron microscopy at day 30 of incubation
Procedure: To formally determine the formation of amyloid fibrils by GnRH analogs and to characterize other possible assemblies present in the sample, EM was done on all of the GnRH analogs. Since the EM analysis is for a qualitative interpretation only, amyloid fibrils and other small aggregates might be observed under the electron microscope even if only a minority of the sample forms fibrils. Samples were studied after 8 and 30 d of incubation. […] The fibrils show a wide variety of morphologies, comprising helical ultrastructures with varying degrees of lateral association. Furthermore, the fibrils are composed of one or more filaments, resulting in overall diameters ranging from approximately 6 to 12 nm. No oligomers are observed for the long-acting compounds at day 8 or at day 30 (Figures 2 and S2).
as §1
A 5-μl aliquot of peptide sample was diluted into 50 μl of water to a peptide concentration of approximately 50 μM, spotted on a glow-discharged, carbon-coated Formvar grid (Electron Microscopy Sciences), incubated for 5 min, washed with distilled water, and then stained with 1% (w/v) aqueous uranyl formate solution. Uranyl formate solutions were filtered through 0.2-μm sterile syringe filters (Corning) before use. EM analysis was performed using a JEOL JEM-100CXII electron microscope at 80 kV with nominal magnifications between 36,000 and 72,000. Images were recorded digitally by using the SIS Megaview III imaging system. At least two independent experiments were carried out for each sample.

[6] = tested on: mouse embryo fibroblast cells; test: LDH release assay; assay type: cell-based; details: 1 μM Aβ(1–40); triplicate
Text: Since amyloid fibrils can be toxic to cells and are associated with several neurological diseases, it is a concern whether or not amyloid fibrils of GnRH analogs are able to generate a toxic response as well. To measure the potential toxicity of GnRH analogs, we used the lactate dehydrogenase (LDH) release assay for cell killing. The LDH release assay is a widely used assay to determine the cytotoxicity of chemicals or environmental toxic factors. LDH is a soluble cytosolic enzyme that is released into the culture medium following the loss of membrane integrity. For the LDH assay, we used mouse embryo fibroblast cells and aged peptide samples at 60 μM in 5% D-mannitol.
For the LDH assay, we used mouse embryo fibroblast cells and peptide fibrils at 60 μM final concentration in 5% D-mannitol. For the buffer control, we used 5% D-mannitol in water. We also used 1 μM Aβ(1–40) and a cell lysate to compare our data. The assay was done using a kit (Sigma) as described by the manufacturer. The assays were done in triplicate and the data presented as the standard error of the mean.

[7] = half-life of fibrils: time in which fluorescence inside drops by 50%, dialysis of 30-d-old analog, 3.5-kDa MWCO, 5% D-mannitol, room temperature, 35 d, exponential fit, 2 d = intrinsic diffusion of monomer
[8] = 3.5-kDa MWCO, room temperature, 35 d
[9] = dialysis, 3.5-kDa cutoff, room temperature, 35 d

Row | t1/2 [1, 7] | Congo Red [3] | Thio T Binding [4] | EM^8 [5] | EM^30 [5] | KD [1, 8] [µM] | time to reach equilibrium of fluorescence inside and outside of the membrane ([1]; dialysis, 3.5-kDa cutoff, room temperature) [days] | Compound | Action [2] | EM, formation of amyloid-like fibrils at day 30 (in words) [5] | toxicity (LDH release) [6] | stability of fibrils from release profile (in words) ([1]; dialysis of 30-d-old samples, 35 d) | K off [1, 9] | t1/2 [1, 9] | Koff ([1]; monomer release from aggregates, dialysis of 30-d-old analog, 3.5-kDa MWCO, 5% D-mannitol, room temperature, 35 d, exponential fit) | CR binding (in words) [3] | EM, formation of amyloid-like fibrils at day 8 (in words) ([5]; 8 d of incubation) | duration of action ([2]; ref [29],[30])
1 | 48 h | n | n | nfib | nfib |  |  | Ac-DNal-DCpa-DPal-Ser-D,LAgl(Me,acetylamino)benzoyl-DAph(Ac)-Leu-ILys-Pro-DAla-NH2 [S9] | very short | do not form any detectable amyloid-like fibrils |  |  |  |  |  |  |  | 
2 | 672 h | b | b | fib | fib | 7 |  | Ac-DNal-DCpa-DPal-Ser-Aph(Ac)-DAph(Ac)-Leu-Agl(Me,IβAla)-Pro-DAla-NH2 [L22] | medium |  |  |  |  |  |  |  |  | 
3 | 840 h | b | b | fib | fib | 2 |  | Ac-Agl(2-Napht)-DCpa-DPal-Ser-Aph(Ac)-DAph(Ac)-Leu-ILys-Pro-DAla-NH2 [L21] | intermediate |  |  |  |  |  |  |  |  | 
4 |  |  |  |  |  |  |  | Aβ(1–40): amyloid peptide Aβ(1–40), used as positive control in the LDH release assay |  |  | neither the peptide analog samples nor Aβ(1–40) generated toxicity |  |  |  |  |  |  | 
5 | 48 h | n | n | nfib | nfib |  |  | Ac-Agl(Me,2-Napht)-DCpa-DPal-Ser-Aph(Ac)-DAph(Ac)-Leu-ILys-Pro-DAla-NH2 [S8] | very short | do not form any detectable amyloid-like fibrils |  |  |  |  |  |  |  | 
6 | 48 h | n | n | nfib | nfib |  | ≤ 3 | CC(C)C[C@H](NC(=O)CNC(=O)[C@H](Cc1ccc(O)cc1)NC(=O)[C@H](CO)NC(=O)[C@H](Cc1c[nH]c2ccccc12)NC(=O)[C@H](Cc1c[nH]cn1)NC(=O)[C@@H]1CCC(=O)N1)C(=O)N[C@@H](CCCNC(=N)N)C(=O)N1CCC[C@H]1C(=O)NCC(N)=O [S12, reference compound] |  | do not form any detectable amyloid-like fibrils |  |  | approximately 4 × 10^−6 S^−1 | approximately 2 d |  |  |  | a few hours

Row | Compound | t1/2 [1, 7] | Congo Red [3] | Thio T Binding [4] | EM^8 [5] | EM^30 [5] | KD [1, 8] [µM] | time to reach equilibrium of fluorescence inside and outside of the membrane ([1]; dialysis, 3.5-kDa cutoff, room temperature) [days] | Action [2] | EM, formation of amyloid-like fibrils at day 30 (in words) [5] | toxicity (LDH release) [6] | stability of fibrils from release profile (in words) ([1]; dialysis of 30-d-old samples, 35 d) | K off [1, 9] | t1/2 [1, 9] | Koff ([1]; monomer release from aggregates, dialysis of 30-d-old analog, 3.5-kDa MWCO, 5% D-mannitol, room temperature, 35 d, exponential fit) | CR binding (in words) [3] | EM, formation of amyloid-like fibrils at day 8 (in words) ([5]; 8 d of incubation) | duration of action ([2]; ref [29],[30])
7 | des-Ac-[DAph(CONHOCH3)6]Peg-degarelix [S10] | ≫35 day | b | b | fib | fib | 1.0 |  |  | form amyloid-like fibrils |  | form very stable amyloids with very little peptide release | < 2 × 10^−7 S^−1 | over 35 d | ≪2 × 10^−7 s^−1 | bind CR | form amyloid-like fibrils | 
